Laboratory results published in paper PMC9103758 (International Journal of Molecular Sciences, 2022).
Entries after “also recorded” stand apart in the source; their conditions may differ.

What was measured:
[1] = test system: hERG; details: 10 μM, Xenopus oocytes overexpressed with hERG; cited from earlier work
[2] = molecular target: T1, human CFTR (Homo sapiens, UniProt P13569); test: Apical membrane current of CFTR in FRT cells expressing human CFTR; format: cell-based; details: apical membrane current, FRT cells expressing human CFTR, 20 μM forskolin, n = 5; read-out: CFTR chloride channel IC50
T1 construct: expressed in transfected cells; host or cells: Fisher rat thyroid (FRT) cells
T1 sequence (P13569 whole entry): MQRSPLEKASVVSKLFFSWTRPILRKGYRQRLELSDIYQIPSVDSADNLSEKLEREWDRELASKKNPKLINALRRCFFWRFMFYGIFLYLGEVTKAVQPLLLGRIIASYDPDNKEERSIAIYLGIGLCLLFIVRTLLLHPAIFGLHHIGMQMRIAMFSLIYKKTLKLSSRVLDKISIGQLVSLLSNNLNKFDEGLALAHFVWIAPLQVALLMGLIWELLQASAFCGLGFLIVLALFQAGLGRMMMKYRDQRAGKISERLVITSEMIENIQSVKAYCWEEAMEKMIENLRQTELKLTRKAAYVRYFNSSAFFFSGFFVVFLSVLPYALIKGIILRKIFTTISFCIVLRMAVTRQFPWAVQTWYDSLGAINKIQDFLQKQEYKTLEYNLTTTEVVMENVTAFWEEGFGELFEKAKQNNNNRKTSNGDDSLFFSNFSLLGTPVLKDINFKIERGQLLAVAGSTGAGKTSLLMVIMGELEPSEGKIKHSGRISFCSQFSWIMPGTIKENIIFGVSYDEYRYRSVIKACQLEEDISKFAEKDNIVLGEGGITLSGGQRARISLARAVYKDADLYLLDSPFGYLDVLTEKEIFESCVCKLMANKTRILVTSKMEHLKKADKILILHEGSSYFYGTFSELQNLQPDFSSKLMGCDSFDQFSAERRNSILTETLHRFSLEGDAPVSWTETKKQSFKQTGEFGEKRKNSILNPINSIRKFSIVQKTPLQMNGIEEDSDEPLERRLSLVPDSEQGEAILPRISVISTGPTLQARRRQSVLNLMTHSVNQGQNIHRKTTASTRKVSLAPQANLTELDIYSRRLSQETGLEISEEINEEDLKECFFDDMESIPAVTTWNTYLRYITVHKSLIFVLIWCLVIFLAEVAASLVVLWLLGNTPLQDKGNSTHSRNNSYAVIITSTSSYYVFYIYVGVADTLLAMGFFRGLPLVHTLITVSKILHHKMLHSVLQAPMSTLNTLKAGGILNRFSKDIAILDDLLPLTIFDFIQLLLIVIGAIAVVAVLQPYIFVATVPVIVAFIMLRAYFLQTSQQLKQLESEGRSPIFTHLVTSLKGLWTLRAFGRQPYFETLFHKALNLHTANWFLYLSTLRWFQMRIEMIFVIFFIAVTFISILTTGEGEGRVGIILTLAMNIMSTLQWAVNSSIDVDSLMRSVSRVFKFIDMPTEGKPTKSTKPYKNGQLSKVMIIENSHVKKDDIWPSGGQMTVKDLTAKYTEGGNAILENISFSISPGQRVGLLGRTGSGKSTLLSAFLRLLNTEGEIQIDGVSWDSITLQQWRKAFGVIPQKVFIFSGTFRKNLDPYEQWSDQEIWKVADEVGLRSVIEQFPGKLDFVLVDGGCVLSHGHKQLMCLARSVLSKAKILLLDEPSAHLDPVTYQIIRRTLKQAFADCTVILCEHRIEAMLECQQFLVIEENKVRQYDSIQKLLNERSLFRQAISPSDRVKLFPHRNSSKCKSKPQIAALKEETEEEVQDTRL
Excerpt: […]. (C) Summary of dose-response (mean ± S.E., n = 5). […]. (F) Summary of dose−response (mean ± S.E., n = 6).
(§1) Snapwell inserts containing ANO1(abc) or CFTR-expressing FRT cells were mounted in Ussing chambers (Physiological Instruments, San Diego, CA). The basolateral hemichamber was filled with buffer solution (in mM): 120 NaCl, 5 KCl, 1 MgCl2, 1 CaCl2, 10 D-glucose, 2.5 HEPES, and 25 NaHCO3 (pH 7.4). The apical hemichamber was filled with buffer solution (in mM): 60 NaCl, 60 Na-gluconate, 5 KCl, 1 MgCl2, 1 CaCl2, 10 D-glucose, 2.5 HEPES, and 25 NaHCO3 (pH 7.4). FRT cells were bathed for a 10 min stabilization period and gassed with 5% CO2 and 95% O2 at 37 °C. The apical membrane current was recorded with an EVC4000 Multi-Channel V/I Clamp (World Precision Instruments, Sarasota, FL, USA) and a PowerLab 4/35 (AD Instruments, Castle Hill, Australia).

[3] = test system: ATP-induced intracellular calcium signaling in FRT cells; test: Intracellular calcium measurement (Fluo-4) in FRT cells; format: cell-based, rat; details: dose-dependent, 100 μM ATP
Method: (§2) (A) Representative Fluo4 fluorescence traces from 3 independent experiments in FRT cells. […] (B,C) Representative apical membrane currents from 3–4 independent experiments in FRT cells expressing human ANO1. […] (D) Representative YFP fluorescence traces in FRT cells expressing human ANO2. […] (E) Representative Fluo4 fluorescence traces from 3 independent experiments in FRT cells. Cells were pretreated with DCPIB for 10 min followed by application of 100 μM ATP. (F) Representative apical membrane currents in FRT cells expressing human ANO1.
FRT cells were plated on 96-well black-walled microplates and loaded with Fluo-4 NW according to the manufacturer’s protocol (Invitrogen, Carlsbad, CA, USA). […] The 96-well plates were transferred to a plate reader for fluorescence assay.

[4] = test system: NIH-3T3 cells; test: Cell viability (MTS/MTT) in NIH-3T3 cells; format: cell-based; details: 24 h, up to/at 30 μM
Method: […]. (A) Structure of VI-116. (B) Representative YFP fluorescence traces. The inhibitory effects of VI-116 on VRAC activity were determined using YFP fluorescence assay in LN215 cells. VRAC was activated by application of […] solution for 5 min. (C) Summary of VRAC dose-response (mean ± S.E., n = 4). (D) Summary of VRAC dose−response with 10% FBS (mean ± S.E., n = 4). […].
NIH-3T3 cells were plated on 96-well microplates. After 24 h incubation, cells were treated with VI-116 or DCPIB and incubated for 24 h. The culture medium and the compounds were changed every 12 h. To assess cell proliferation, the cells were incubated with MTS for 1 h. The soluble formazan produced by the cellular reduction of MTS was quantified by measuring the absorbance at 490 nm with an Infinite M200 (Tecan, Grödig, Austria) microplate reader. MTS assay was performed using a CellTiter 96 Aqueous One Solution Cell Proliferation Assay kit (Promega, Madison, WI, USA).

[5] = molecular target: T2, hERG K+ channel (Homo sapiens, UniProt Q12809); test: FluxOR thallium flux assay in HEK293T cells expressing hERG; format: cell-based
T2 construct: expressed in transfected cells; called HEK293
T2 sequence (Q12809 whole entry): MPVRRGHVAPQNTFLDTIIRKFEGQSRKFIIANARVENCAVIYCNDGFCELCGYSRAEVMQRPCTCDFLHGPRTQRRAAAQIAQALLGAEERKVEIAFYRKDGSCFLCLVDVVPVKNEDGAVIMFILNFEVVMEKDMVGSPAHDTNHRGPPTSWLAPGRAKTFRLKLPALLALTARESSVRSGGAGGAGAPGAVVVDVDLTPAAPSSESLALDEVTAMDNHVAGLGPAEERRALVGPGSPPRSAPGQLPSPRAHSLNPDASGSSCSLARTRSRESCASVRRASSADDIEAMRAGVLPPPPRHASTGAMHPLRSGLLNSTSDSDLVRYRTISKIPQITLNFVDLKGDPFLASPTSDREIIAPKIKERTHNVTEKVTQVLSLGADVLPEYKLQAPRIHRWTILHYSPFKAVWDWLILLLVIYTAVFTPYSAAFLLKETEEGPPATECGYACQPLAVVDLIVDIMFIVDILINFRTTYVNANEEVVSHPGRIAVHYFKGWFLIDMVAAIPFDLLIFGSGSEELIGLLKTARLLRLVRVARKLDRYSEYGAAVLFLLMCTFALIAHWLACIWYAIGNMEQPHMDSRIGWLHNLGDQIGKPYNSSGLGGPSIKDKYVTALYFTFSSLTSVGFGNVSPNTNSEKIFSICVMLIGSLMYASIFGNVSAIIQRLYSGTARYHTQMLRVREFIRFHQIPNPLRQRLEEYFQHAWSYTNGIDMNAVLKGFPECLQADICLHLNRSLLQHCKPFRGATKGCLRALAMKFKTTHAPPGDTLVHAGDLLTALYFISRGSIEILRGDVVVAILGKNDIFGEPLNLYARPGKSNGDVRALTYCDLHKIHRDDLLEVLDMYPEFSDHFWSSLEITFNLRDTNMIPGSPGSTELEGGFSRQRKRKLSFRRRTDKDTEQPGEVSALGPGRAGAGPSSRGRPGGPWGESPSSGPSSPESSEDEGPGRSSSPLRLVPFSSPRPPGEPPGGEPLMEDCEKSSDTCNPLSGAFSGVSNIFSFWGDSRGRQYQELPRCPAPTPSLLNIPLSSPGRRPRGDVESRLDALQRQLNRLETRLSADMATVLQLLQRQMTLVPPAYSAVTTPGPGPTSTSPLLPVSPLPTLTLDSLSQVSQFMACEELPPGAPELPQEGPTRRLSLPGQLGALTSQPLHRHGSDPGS
Method: (C) Summary of dose-response (mean ± S.E., n = 5). […] (F) Summary of dose−response (mean ± S.E., n = 6).
HEK293 cells stably expressing human Kv11.1 (hERG) were cultured in 96-well plates. After 48 h, the cells were incubated at 28 °C for 4 h to increase the membrane expression of hERG. The culture medium was replaced with a 80 μL/well of FluxOR (Invitrogen, Waltham, MA, USA) loading buffer and incubated for 1 h at 37 °C in the dark. After removing the loading buffer, 100 μL of assay buffer was added to each well. […] FluxOR fluorescence (excitation/emission: 490/525 nm) was recorded for 4 s before the addition of 20 μL of stimulus buffer containing thallium ions, and the fluorescence was recorded. FluxOR fluorescence was recorded and analyzed using the FLUOstar Omega microplate reader (BMG Labtech, Ortenberg, Germany) and the MARS Data Analysis Software (BMG Labtech, Ortenberg, Germany). All buffers were prepared according to the manufacturer’s instructions.

[6] = molecular target: T3, ANO1 (Homo sapiens, UniProt Q5XXA6, DEL476-501); test: Apical membrane current of ANO1 in FRT cells expressing human ANO1; format: cell-based; details: 3 μM Eact
T3 construct: expressed in transfected cells; host or cells: Fisher rat thyroid (FRT) cells; The YFP assay uses FRT-ANO1-YFP cells, which also carry the halide sensor
T3 sequence (Q5XXA6 with tags, fused parts or gaps isoform Q5XXA6-5 DEL539-564): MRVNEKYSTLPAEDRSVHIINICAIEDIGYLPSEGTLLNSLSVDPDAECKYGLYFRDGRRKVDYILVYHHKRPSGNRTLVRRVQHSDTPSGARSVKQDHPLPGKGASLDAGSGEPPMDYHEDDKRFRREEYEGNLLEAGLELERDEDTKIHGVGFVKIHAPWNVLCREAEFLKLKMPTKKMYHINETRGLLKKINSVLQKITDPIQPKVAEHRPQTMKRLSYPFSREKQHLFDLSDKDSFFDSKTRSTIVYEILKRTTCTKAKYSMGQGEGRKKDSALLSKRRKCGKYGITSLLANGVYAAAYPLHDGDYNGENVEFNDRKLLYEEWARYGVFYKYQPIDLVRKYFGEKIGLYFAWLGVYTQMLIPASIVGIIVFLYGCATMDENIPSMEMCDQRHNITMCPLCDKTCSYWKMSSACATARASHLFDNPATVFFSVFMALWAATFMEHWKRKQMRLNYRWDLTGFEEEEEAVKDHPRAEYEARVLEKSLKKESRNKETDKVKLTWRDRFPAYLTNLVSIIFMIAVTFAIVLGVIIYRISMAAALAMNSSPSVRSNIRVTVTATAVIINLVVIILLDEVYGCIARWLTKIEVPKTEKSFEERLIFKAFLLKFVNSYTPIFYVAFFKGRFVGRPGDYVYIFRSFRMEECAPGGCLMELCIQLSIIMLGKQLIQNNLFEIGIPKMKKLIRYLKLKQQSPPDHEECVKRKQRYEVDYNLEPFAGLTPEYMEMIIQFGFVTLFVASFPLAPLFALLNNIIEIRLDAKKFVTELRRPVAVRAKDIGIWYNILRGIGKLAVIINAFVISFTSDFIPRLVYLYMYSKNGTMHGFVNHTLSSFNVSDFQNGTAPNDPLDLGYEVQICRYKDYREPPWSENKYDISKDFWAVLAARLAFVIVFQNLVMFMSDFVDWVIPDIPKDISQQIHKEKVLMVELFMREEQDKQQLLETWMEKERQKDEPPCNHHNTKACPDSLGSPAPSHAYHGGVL
Method: as §2, §1

[7] = test system: calcium-activated chloride currents in calf pulmonary artery endothelial (CPAE) cells; details: cited from earlier work

With `CCCCC1(C2CCCC2)Cc2cc(OCCCC(=O)O)c(Cl)c(Cl)c2C1=O` (stereo not drawn) [DCPIB, 4-(2-butyl-6,7-dichlor-2-cyclopentylindan-1-on-5-yl) oxobutyric acid] as the compound, how does the “effect on hERG” value [1] read?
The value was “did not inhibit”.

And the IC50 [2]?
The IC50 was 71.7 µM.

What about the “effect on ATP-induced intracellular calcium increase” value [3] of the same compound?
Its value is “significantly affected; also recorded: strongly blocked; also recorded: potently blocked; also recorded: potently inhibited”.

And the “effect on cell viability” value [4]?
Its value is “significantly reduced cell viability”.

And the “effect on hERG K+ channel activity” value ([5]; 10 μM)?
The value was “significantly blocked”.

What about the IC50 ([5]; thallium flux, HEK293T cells expressing hERG, n = 6) of the same compound?
Its IC50 is 11.4 µM.

What about the “effect on Eact-activated ANO1 chloride current” value ([6]; 10 μM) of the same compound?
The value was “increased”.

And the “effect on Eact-activated ANO1 chloride current” value ([6]; 100 μM)?
The value was “almost completely inhibited”.

What about the “effect on calcium-activated chloride currents” value [7] of the same compound?
The value was “did not affect”.
